Experimental data as given in patent publication US7557133B2, “Caspase inhibitors containing isoxazoline ring” (LG Life Sciences Ltd., priority 2003, dated 2009).

Tests used:
caspase-8 = target: T1, caspase-8 (Homo sapiens, UniProt Q14790); experiment: Caspase-8 inhibitory effect (fluorescent substrate AcDEVD-AFC); format: biochemical; settings: 25° C., 50 μM AcDEVD-AFC, 2.1 nM caspase-8; for kinact/KI: pH 7.5, read-out: Caspase-8 Kobs/[I] (converted)
T1 construct: p10 and p20 subunits (Thornberry, N. A. et al, Nature, 1992, 356, 768) were expressed in E. coli; made in house; host or cells: E. coli
T1 sequence (Q14790 217-374 limits assumed, species assumed): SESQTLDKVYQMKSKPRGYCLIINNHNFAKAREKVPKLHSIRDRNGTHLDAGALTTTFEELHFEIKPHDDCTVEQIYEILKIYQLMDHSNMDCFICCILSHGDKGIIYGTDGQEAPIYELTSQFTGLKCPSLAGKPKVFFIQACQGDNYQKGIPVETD
T1 sequence (Q14790 385-479 limits assumed, species assumed): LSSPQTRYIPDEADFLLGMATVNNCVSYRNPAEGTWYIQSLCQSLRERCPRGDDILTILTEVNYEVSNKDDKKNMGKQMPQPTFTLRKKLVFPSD
Description: Caspase-1 and caspase-8 known as cysteine proteases in the form of α2β2 were expressed, purified, and activated by modifying a method known in Thornberry, N. A. et al, Nature, 1992, 356, 768. Thornberry, N. A. Methods in Enzymology, 1994, 244, 615. Walker, N. P. C. et al. Cell, 1994, 78, 343, and caspase-9 was also purified by a similar method, and the inhibitory activity against them was tested. Briefly describing, p10 and p20 subunits (Thornberry, N. A. et al, Nature, 1992, 356, 768) were expressed in E. coli and purified by nickel column and anionic exchange chromatography to give caspase-1, caspase-8 and caspase-9. The fluorescent substrate AcYVAD-AFC for thus obtained caspase-1, AcDEVD-AFC for caspase-8, and AcLEHD-AFC for caspase-9 were used for determining specific activity of the synthesized inhibitors. The enzyme reaction was carried out at 25° C. with various concentrations of the inhibitors in a buffer solution containing 50 mM HEPES(pH 7.50), 10% (w/v) sucrose, 0.1% (w/v) CHAPS, 100 mM NaCl, 1 mM EDTA, and 10 mM DTT in the presence of 50 μM AcYVAD-AFC for 10 nM caspase-1, 50 μM AcDEVD-AFC for 2.1 nM caspase-8, and 150 μM AcLEHD-AFC for 200 nM caspase-9. The inhibitory constants Ki and Kobs of the inhibitors were determined by measuring the reaction velocity with the time lapse using a fluorescent spectrometer and by obtaining the initial rate constant. Ki was calculated from the Lineweaver Burk Plot, and Kobs from the following Equation 1. Kobs=−ln(1−At/Aoo)/t Equation 1
At means cleavate rate (%) at time t, and
Aoo means the maximum cleavage rate (%).
Spectra MAX GeminiXS Fluorescent Spectrometer of Molecular Device Co. was used at the excitation wavelength of 405 nm and the emission wavelength of […].

[1] = system: Jurkat cell (ATCC TIB-152); experiment: Jurkat cell apoptosis by Fas antibody, WST-1 method; format: cell-based; settings: apoptosis using Fas antibody, WST-1; for IC50: Homo sapiens, Jurkat
Description: The […] inhibitory activity of the inhibitors was determined by subjecting Jurkat cell (ATCC TIB-152) to apoptosis using Fas antibody (Upstate Biotech 05-201) and by detecting the color change according to the WST-1 method known in Francoeur A. M. and Assalian A. (1996) Biochemica 3, 19-25 to observe the amount of alive Jurkat cells when the cells were treated by the inhibitor. Spectra MAX 340 Spectrometer of Molecular Device Co. was used at the absorbance wavelength of 440 nm.

SMILES | kinact/KI (caspase-8) [M⁻¹ s⁻¹] | Jurkat cell IC50 [1] | Caspase-8 Kobs/[I] (caspase-8) | IC50 [1] [nM]
CC(C)[C@@]1(C(=O)N[C@@H](CC(=O)O)C(=O)COC2=C(Cc3ccccc3)C(=O)OC2)CC(c2nccc3ccccc23)=NO1 [Iaa20, (3S)-5-[(4-benzyl-5-oxo-2,5-dihydro-3-furanyl)oxy]-3-({[(5R)-5-isopropyl-3-(1-isoquinolinyl)-4,5-dihydro-5-isoxazolyl]carbonyl}amino)-4-oxopentanoic Acid] | 617 | No Activity |  | 
CC(C)C(=O)OCC(=O)[C@H](CC(=O)O)NC(=O)[C@]1(C(C)C)CC(c2nccc3ccccc23)=NO1 [Iaa21, (3S)-5-(isobutyryloxy)-3-({[(5R)-5-isopropyl-3-(1-isoquinolinyl)-4,5-dihydro-5-isoxazolyl]carbonyl}amino)-4-oxopentanoic acid] |  | No Activity | No Activity | 
CC(C)[C@@]1(C(=O)N[C@@H](CC(=O)O)C(=O)COc2ccccn2)CC(c2nccc3ccccc23)=NO1 [Iaa23, (3S)-3-({[(5R)-5-isopropyl-3-(1-isoquinolinyl)-4,5-dihydro-5-isoxazolyl]carbonyl}amino)-4-oxo-5-(2-pyridinyloxy)pentanoic Acid] | 483 | No Activity |  | 
CC(C)[C@@]1(C(=O)N[C@@H](CC(=O)O)C(=O)COc2cccc[n+]2C)CC(c2nccc3ccccc23)=NO1.O=S(=O)([O-])C(F)(F)F [Iaa25, 2-{[(3S)-4-carboxy-3-({[(5R)-5-isopropyl-3-(1-isoquinolinyl)-4,5-dihydro-5-isoxazolyl]carbonyl}amino)-2-oxobutyl]oxy}-1-methylpyridinium trifluoromethanesulfonate] | 2830 | No Activity |  | 
CCC1(C(=O)N[C@@H](CC(=O)O)C(=O)COc2cccc[n+]2C)CC(c2ccccc2C(C)C)=NO1.O=S(=O)([O-])C(F)(F)F (stereo partly drawn) [Iaa26, 2-{[(3S)-4-carboxy-3-({[5-ethyl-3-(2-isopropylphenyl)-4,5-dihydro-5-isoxazolyl]carbonyl}amino)-2-oxobutyl]oxy}-1-methylpyridinium trifluoromethanesulfonate] | 517 | No Activity |  | 
CC(C)C1(C(=O)NC(CC(=O)O)C(=O)CF)CC(c2cc3cc(Cl)ccc3n2C)=NO1 (centres unmarked) [Iaa27, 3-({[3-(5-chloro-1-methyl-1H-indol-2-yl)-5-isopropyl-4,5-dihydro-5-isoxazolyl]carbonyl}amino)-5-fluoro-4-oxopentanoic acid] | 13700 |  |  | 1300
Cc1ccc2c(c1)cc(C1=NOC(C(=O)NC(CC(=O)O)C(=O)CF)(C(C)C)C1)n2C (centres unmarked) [Iaa28, 3-({[3-(1,5-dimethyl-1H-indol-2-yl)-5-isopropyl-4,5-dihydro-5-isoxazolyl]carbonyl}amino)-5-fluoro-4-oxopentanoic Acid] | 30000 |  |  | 600
CCC1(C(=O)N[C@@H](CC(=O)O)C(=O)COc2c(F)c(F)cc(F)c2F)CC(c2ccc3ccccc3c2)=NO1 (stereo partly drawn) [Iee, (3S)-3-({[5-ethyl-3-(2-naphthyl)-4,5-dihydro-5-isoxazolyl]carbonyl}amino)-4-oxo-5-(2,3,5,6-tetrafluorophenoxy)pentanoic acid] | 3000 |  |  | 32600
CCC1(C(=O)N[C@@H](CC(=O)O)C(=O)COc2c(F)c(F)cc(F)c2F)CC(c2nccc3ccccc23)=NO1 (stereo partly drawn) [Iff, (3S)-3-({[5-ethyl-3-(1-isoquinolinyl)-4,5-dihydro-5-isoxazolyl]carbonyl}amino)-4-oxo-5-(2,3,5,6-tetrafluorophenoxy)pentanoic acid] | 8330 |  |  | 1200
CCC1(C(=O)NC(CC(=O)O)C(=O)CF)CC(c2ccnc3ccccc23)=NO1 (centres unmarked) [Ijj, 3-({[5-Ethyl-3-(4-quinolinyl)-4,5-dihydro-5-isoxazolyl]carbonyl}amino)-5-fluoro-4-oxopentanoic acid] | 3170 |  |  | 4700
CCC1(C(=O)NC(CC(=O)O)C(=O)CF)CC(c2cc3ccccc3s2)=NO1 (centres unmarked) [Ikk, 3-({[3-(benzothiophen-2-yl)-5-ethyl-4,5-dihydro-5-isoxazolyl]carbonyl}amino)-5-fluoro-4-oxopentanoic acid] | 2000 |  |  | 1100
CCC1(C(=O)N[C@@H](CC(=O)O)C(=O)COc2c(F)c(F)cc(F)c2F)CC(c2c(C)c3ccccc3n2C)=NO1 (stereo partly drawn) [Ill, (3S)-3-({[3-(1,3-dimethyl-1H-indol-2-yl)-5-ethyl-4,5-dihydro-5-isoxazolyl]carbonyl}amino)-4-oxo-5-(2,3,5,6-tetrafluorophenoxy)pentanoic acid] | 2170 |  |  | 39200
CCC1(C(=O)NC(CC(=O)O)C(=O)CF)CC(c2c(C)c3ccccc3n2C)=NO1 (centres unmarked) [Imm, 3-({[3-(1,3-Dimethyl-1H-indol-2-yl)-5-ethyl-4,5-dihydro-5-isoxazolyl]carbonyl}amino)-5-fluoro-4-oxopentanoic acid] | 2670 |  |  | 2000
CCC1(C(=O)N[C@@H](CC(=O)O)C(=O)COc2c(F)c(F)cc(F)c2F)CC(Cc2cccc3ccccc23)=NO1 (stereo partly drawn) [Inn, (3S)-3-({[5-ethyl-3-(1-naphthylmethyl)-4,5-dihydro-5-isoxazolyl]carbonyl}amino)-4-oxo-5-(2,3,5,6-tetrafluorophenoxy)pentanoic acid] | 4330 |  |  | 6500
CCC1(C(=O)N[C@@H](CC(=O)O)C(=O)COC(=O)c2c(Cl)cccc2Cl)CC(CCc2cccc3ccccc23)=NO1 (stereo partly drawn) [Ioo, (3S)-5-[(2,6-dichlorobenzoyl)oxy]-3-[({5-ethyl-3-[2-(1-naphthyl)ethyl]-4,5-dihydro-5-isoxazolyl}carbonyl)amino]-4-oxopentanoic acid] | 333 |  |  | 50000
CCC[C@@]1(C(=O)NC(CC(=O)O)C(=O)CF)CC(c2nccc3ccccc23)=NO1 (stereo partly drawn) [Itt, 5-Fluoro-3-({[(5S)-3-(1-isoquinolinyl)-5-propyl-4,5-dihydro-5-isoxazolyl]carbonyl}amino)-4-oxopentanoic acid] | 7170 |  |  | 160
CC[C@@]1(C(=O)NC(CC(=O)O)C(=O)CF)CC(c2cccc3ccccc23)=NO1 (stereo partly drawn) [Iuu, 3-({[(5S)-5-ethyl-3-(1-naphthyl)-4,5-dihydro-5-isoxazolyl]carbonyl}amino)-5-fluoro-4-oxopentanoic acid] | 4830 |  |  | 980
CC[C@@]1(C(=O)NC(CC(=O)O)C(=O)CF)CC(c2ccc3ccccc3n2)=NO1 (stereo partly drawn) [Ivv, 3-({[(5S)-5-ethyl-3-(2-quinolinyl)-4,5-dihydro-5-isoxazolyl]carbonyl}amino)-5-fluoro-4-oxopentanoic acid] | 25000 |  |  | 150
CC[C@]1(C(=O)NC(CC(=O)O)C(=O)CF)CC(c2cc3ccccc3cn2)=NO1 (stereo partly drawn) [Iww, 3-({[(5R)-5-ethyl-3-(3-isoquinolinyl)-4,5-dihydro-5-isoxazolyl]carbonyl}amino)-5-fluoro-4-oxopentanoic Acid] | 18300 |  |  | 1900
CCC1(C(=O)NC(CC(=O)O)C(=O)CF)CC(c2cccc3cccnc23)=NO1 (centres unmarked) [Ixx, 3-({[5-ethyl-3-(8-quinolinyl)-4,5-dihydro-5-isoxazolyl]carbonyl}amino)-5-fluoro-4-oxopentanoic acid] | 667 |  |  | 26500
CCC1(C(=O)NC(CC(=O)O)C(=O)CF)CC(c2cnc3ccccc3c2)=NO1 (centres unmarked) [Iyy, 3-({[5-ethyl-3-(3-quinolinyl)-4,5-dihydro-5-isoxazolyl]carbonyl}amino)-5-fluoro-4-oxopentanoic acid] | 5170 |  |  | 31200
CC(C)[C@@]1(C(=O)NC(CC(=O)O)C(=O)CF)CC(c2ccc3ccccc3n2)=NO1 (stereo partly drawn) [Izz, 5-Fluoro-3-({[(5R)-5-isopropyl-3-(2-quinolinyl)-4,5-dihydro-5-isoxazolyl]carbonyl}amino)-4-oxopentanoic Acid] | 7000 |  |  | 1250
